Measurements taken from patent publication US6967100B2, “Pancreatic islet cell growth factors” (The Walter and Eliza Hall Institute of Medical Research, priority 2000, dated 2005).

Columns and labels:
[1] = tested on: 13.5 dpc fetal mouse pancreas cells; test: Low cell density serum-free culture of 13.5 dpc fetal mouse pancreatic cells: total and insulin-positive β cell number; type: cell-based; conditions: for laminin-1 induced/mediated β cell differentiation: with laminin-1, four days
Protocol: (§1) Dissociated fetal pancreas cells were prepared from 13.5 dpc CBA mice. Pregnant mice at 13.5 dpc were killed by cervical dislocation and fetuses collected into ice cold sterile mouse tonicity phosphate-buffered saline (MTPBS). Fetal pancreata were harvested under an Olympus dissection microscope into RPMI 1640 medium and dissociated in a shaking water bath at 37° C. for 11 mins in Ca^2+/Mg^2+-free PBS containing 0.5% v/v trypsin/EDTA as described for testis by Bucci et al. (1986). After dissociation, trypsin was inactivated by addition of 8% w/v bovine serum albumin (BSA, fraction V) (Sigma, St. Louis, USA). The tissue was aspirated several times in a pipette, passed through a 27 gauge needle to make a single cell suspension and then rinsed in 10 μg/ml DNAse I (Promega, Madison, USA) in RPMI 1640 for 10 mins to reduce cellular aggregates. Cell suspensions were filtered through a 70-100 μm steel mesh, centrifuged at 400×g for 5 mins and the supernatant discarded. The cell pellet was resuspended in HYBRIDOMA medium and stored on ice. Cells were counted under a haemocytometer and viability was determined by exclusion of 0.2% v/v trypan blue dye. Pancreatic cells were plated in 8 chamber slides (Nunc) at 1.5×10^4 cells/well in 0.3 ml HYBRIDOMA medium 500 UI/ml penicillin and 500 μg/ml streptomycin. The cells were cultured in 10% v/v CO2, 90% v/v air at 37° C. with 100% humidity for four days in the presence of factors such as laminin-1 and BMPs.
Fetuses at 15.5 and 18.5 dpc from homozygous (−/−) or heterozygous (+/−) α6 integrin gene targeted (Georges-Labouesse et al., 1996) or wild type mice were fixed overnight in Bouin ? s solution. After standard dehydration processing, fetuses were embedded into paraffin and sectioned at 7 μm. Cultured pancreatic cells were washed three times with warm mouse tonicity phosphate buffered saline (MT-PBS) and fixed with 4% paraformaldehyde (PFA) for 10 mins. Endogenous peroxidase was blocked by 3% v/v H2O2 in methanol for 8 mins. Prior to antibody staining, non-specific protein binding was blocked by incubation for at least 30 mins with MT-PBS containing 2% w/v bovine serum albumin or 2% v/v normal rabbit serum. Controls were performed by replacing first antibody with pre-immune serum from the appropriate species. Cell were incubated with primary antibodies for 90 mins at room temperature, followed by three thorough washes with MT-PBS. Horseradish peroxidase-conjugated rabbit anti-guinea pig or swine anti-rabbit immunoglobulins (Dako) were added for 30 mins at room temperature followed by thorough washes. Immunoperoxidase was detected with 3,3′-diamninobenzidine/H2O2 for 4-8 mins, and slides were counterstained with haematoxylin.
Immunoperoxidase positive and negative cells were quantitated in the central strip of each culture chamber (a 90×90 mm square) under a microscope equipped with an eyepiece graticule (Olympus, Japan) at ×40 power and calibrated with a micrometer (Olympus). All data are presented as mean±s.e.m of at least three independent experiments.

[2] = tested on: 13.5 dpc fetal mouse pancreas cells; test: Colony formation of 13.5 dpc fetal mouse pancreas cells cultured with BMPs and laminin-1; type: cell-based; conditions: 13.5 dpc fetal pancreas cells
Protocol: as §1
(§2) After four days in culture, cells were washed twice with warm MT-PBS and fixed with a 4% v/v paraformaldehye for 10 mins. In some cases, 100 μM BrdU was added to label proliferating cells 12 hours before fixation and detection with monoclonal antibody to BrdU and FITC-labelled rabbit anti-mouse immunoglobulin. For immunoperoxidase staining, endogenous peroxidase was blocked by 3% v/v H2O2 in methanol for 8 mins and, prior to addition of primary antibody, non-specific protein binding was blocked by incubation for at least 30 mins in MTPBS containing 2% w/v BSA or 2% v/v normal rabbit serum. Controls were performed by replacing primary antibody with pre-immune serum from the appropriate species. Tissue sections or cells were incubated with primary antibodies for 90 min RT, followed by three thorough washes with MTPBS. For immunoperoxidase staining, horseradish peroxidase-conjugated rabbit anti-guinea pig, swine anti-rabbit or rabbit anti-mouse immunoglobulins (Dako) diluted 1:80 were added for 30 mins at RT followed by thorough washes; colour was developed with 3,3′-diaminobenzidine/H2O2 for 4-8 mins and slides counterstained with haematoxylin.
A pancreatic cell colony was defined as a spherical collection of 20 cells. Colonies were counted under a×10 power objective with an eyepiece graticule.

[3] = tested on: E15.5 CBA mouse fetal pancreas cells; test: Cystic colony formation of E15.5 fetal mouse pancreas cells in laminin-1 overlay culture; type: cell-based
Protocol: Pancreata were dissected from embryonic day (E)15.5 CBA mouse fetuses and dissociated into single cells as described (Jiang et al., 1999). Briefly, dissected pancreas was digested with trypsin/EDTA for 15 minutes at 37° C. in a shaking water bath. Cells were counted in a haemocytometer and viability determined by trypan blue dye exclusion. Each fetal pancreas yielded 50,000 viable cells (48,509±11,299, n=14). Dissociated cells were plated in 8 well chamber slides (Nunc, Naperville, USA) at 7.5×10^4 cells/well in 0.3 ml AIM V medium supplemented with N-2 (1:100, Gibco BRL Life Technologies, Gaithersburg, USA), 500 UI/ml penicillin and 500 μg/ml streptomycin. Laminin-1 (160 μg/ml), purified from murine Engelbreth-Holm-Swarm tumor basement membrane (Becton Dickinson Labware, Bedford, USA), was overlayed on cells in the presence of various growth factors. Cultures were incubated in 10% CO2 90% air at 37° C., for up to 6 days. Recombinant human BMP 6 and BMP 5, recombinant human TGF-β1 and recombinant activin A were purchased from R&D Systems (Minneapolis, USA). These factors, dissolved at a concentration of 10 ng/μl in mouse tonicity phosphate buffered saline (PBS) containing 0.1% w/v bovine serum albumin (BSA), were added at the start of culture. Phase contrast images of colonies were photographed with Olympus IX70 digitized camera.
Colony formation was assessed at day 6 of culture. A colony was defined as a cellular sphere ≧30 μm in diameter, which contained more than 20 cells. The number of colonies per well was counted directly under a inverted microscope at ×10. Colony counts were performed using a blind design.

[4] = tested on: 13.5 dpc fetal mouse pancreas cells; test: BrdU labelling of proliferating cells in 13.5 dpc fetal mouse pancreas cell culture; type: cell-based; conditions: 100 μM BrdU, laminin-1 (200 μg/ml), with or without GoH3, days 1-4
Protocol: as §2, with “For immunoperoxidase staining, horseradish peroxidase-conjugated rabbit anti-guinea pig, swine anti-rabbit or rabbit anti-mouse immunoglobulins (Dako) diluted 1:80 were added for 30 mins at RT followed by thorough washes; colour was developed with 3,3′-diaminobenzidine/H2O2 for 4-8 mins and slides counterstained with haematoxylin.” left out
In some cultures, 100 μM BrdU (Sigma) was included to label proliferating cells; cells were fixed by 4% PFA at days 1, 2, 3 and 4 for insulin and BrdU double immunofluorescence staining. […] Slides were observed and photomicrographed under a Zeis Axiopot fluorescence microscope.

α6 integrin and α-DG = test: Indirect immunofluorescence for α6 integrin and α-DG expression in cultured fetal pancreas cells; type: cell-based, mouse; conditions: day 2 (laminin-1 alone: day 2 and four)
Protocol: In some cultures, 100 μM BrdU (Sigma) was included to label proliferating cells; cells were fixed by 4% PFA at days 1, 2, 3 and 4 for insulin and BrdU double immunofluorescence staining. Fetuses were directly snap-frozen in liquid nitrogen, section at 8 μm, the sections air-dried for 40-60 mins and fixed in cold (−20° C.) acetone for 10 mins. Pre-treatment and primary antibody incubations were as described above, followed by incubation with Texas Red-conjugated goat anti-guinea pig immunoglobulins (Vector Laboratories, Burlingame, USA) or fluorescein isothiocyanate (FITC)-conjugated rabbit anti-mouse, -rat or -goat or swine anti-rabbit immunoglobulins (Dako) for 30 mins at room temperature and three thorough washes. Slides were observed and photomicrographed under a Zeis Axiopot fluorescence microscope.

C=C1[C@@H](C)[C@H]2[C@H](Cc3ccccc3)NC(=O)[C@]23[C@H](OC(C)=O)/C=C/[C@@](C)(O)C(=O)[C@@H](C)C/C=C/[C@H]3[C@@H]1O [Cytochalasin D]
laminin-1 induced/mediated β cell differentiation [1]: increased

COc1cccc(-c2cc(=O)c3ccccc3o2)c1N [PD98059]
laminin-1 induced/mediated β cell differentiation [1]: increased

O=c1c(-c2ccc(O)cc2)coc2cc(O)cc(O)c12 [genistein]
laminin-1 induced/mediated β cell differentiation [1]: did not affect

CO[C@H]1[C@@H](OC)C[C@H](C)[C@@H](OC)C2=CC(=O)C=C(NC(=O)/C(C)=C/C=C\[C@H](OC)[C@@H](OC(N)=O)/C(C)=C/[C@@H]1C)C2=O [herbimycin A]
laminin-1 induced/mediated β cell differentiation [1]: did not affect

EGF: candidate growth factor (NSDSECPLSHDGYCLHDGVCMYIEALDKYACNCVVGYIGERCQYRDLKWWELR; Epidermal growth factor; UniProt P01133 971-1023, looked up)
proliferation or colony formation, candidate growth factors individually [2]: unable to promote proliferation or colony formation

HGF: candidate growth factor
proliferation or colony formation, candidate growth factors individually [2]: unable to promote proliferation or colony formation

PYY: candidate growth factor
proliferation or colony formation, candidate growth factors individually [2]: unable to promote proliferation or colony formation

TGF-β1: recombinant human TGF-β1 from R&D Systems
BMP 6-induced colony formation ([3]; 100 ng/ml against BMP 6 10 ng/ml, laminin-1 160 μg/ml, p<0.01 (FIG. 10B)): antagonized | colony formation relative to laminin-1 alone ([3]; 100 ng/ml, laminin-1 160 μg/ml (FIG. 10A)): suppressed colony formation to levels below that observed with laminin-1 alone | potency of inhibition of BMP 6-induced colony numbers relative to Activin A ([3]; dose-dependency of inhibition, BMP 6 10 ng/ml (FIG. 10C)): 100 fold

fibronectin
inhibition of pancreatic / β cell survival ([1]; four days culture, compared to medium alone): no effect

gastrin
proliferation or colony formation, candidate growth factors individually [2]: unable to promote proliferation or colony formation

heparin
effect on the GoH3-induced increase in β cell differentiation ([1]; heparin at 100 μM, laminin-1 plus GoH3): blocked the effect of α6 integrin antibody GoH3 | number of total and β cells ([1]; with laminin-1, heparin at 100 μM, p<0.05): significantly decreased

laminin-1: heterotrimeric matrix glycoprotein prepared from murine Englebreth-Holm-Swarm tumour cell basement membrane
BrdU-positive cells [4]: 2.5% | proportion of cells positive for both α6 integrin and α-DG (α6 integrin and α-DG): approximately 10% | glucagon-positive cell number ([1]; in the presence of soluble laminin-1): unchanged | total cell number per well ([1]; laminin-1 without or with 40 μg/ml GoH3, mean±s.e.m): 4016±650 | β cell number per well ([1]; laminin-1 without or with 40 μg/ml GoH3, mean±s.e.m n=3): 2265±240 | increase in number of insulin-positive β cells ([1]; soluble laminin-1, four days culture): 60 fold
